In patent US7855205B2, “Pyrimidinyl substituted fused-pyrrolyl compounds useful in treating kinase disorders” (Janssen Pharmaceutica NV, priority 2004, dated 2010) one finds IC50 data, which are given here for 11 molecules.

One test deals with T1, CDK1:Cyclin-B (Homo sapiens, UniProt P06493).
T1 construct: purchased New England Biolabs, Beverly, Mass; 6020; host or cells: insect cells
The test can be described thus: CDK1 Screening Assay. The test is classed as biochemical. Conditions: 33P-γ-ATP incorporation, 10 μM ATP. A digest of the protocol: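 Human CDK1/cyclin B co-expressed in insect cells (30 ng/well) in 50 mM Tris pH 8, 10 mM MgCl2, with 10 μM ATP, 33P-γ-ATP and 0.025 μM biotinylated histone H1 peptide (reaction-mix levels); 1% DMSO final. 1 h at 30° C. 33P incorporation into streptavidin-captured peptide by scintillation counting.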

The target in another test is T2, Aurora-A (Mus musculus, UniProt P97477).
T2 construct: made in house; host or cells: sf9 insect cells
T2 sequence (P97477 1-395): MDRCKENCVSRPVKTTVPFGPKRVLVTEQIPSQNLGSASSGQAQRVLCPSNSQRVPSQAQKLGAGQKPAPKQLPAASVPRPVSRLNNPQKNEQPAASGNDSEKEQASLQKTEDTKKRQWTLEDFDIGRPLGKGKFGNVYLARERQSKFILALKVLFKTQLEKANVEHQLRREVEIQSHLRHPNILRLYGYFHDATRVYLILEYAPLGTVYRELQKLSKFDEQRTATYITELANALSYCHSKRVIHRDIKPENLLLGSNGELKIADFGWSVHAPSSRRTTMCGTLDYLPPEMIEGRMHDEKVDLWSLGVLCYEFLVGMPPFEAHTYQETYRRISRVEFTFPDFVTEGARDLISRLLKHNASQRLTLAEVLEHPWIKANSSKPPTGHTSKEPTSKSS
Kind of test: Aurora-A Screening Assay. It counts as biochemical, murine. Conditions: 33P-γ-ATP incorporation, 10 μM ATP.

A further test has as its system HCT-116 colon carcinoma. The test can be described thus: Inhibition of cell proliferation (14C-thymidine incorporation), HCT-116. It counts as cell-based. The following applies: Homo sapiens, HCT-116, HCT116. A digest of the protocol:
(§1)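 Cells (3000-8000/well) grown 24 h at 37° C, 5% CO2, then given compound in DMSO for 24 h before adding methyl 14C-thymidine (0.2 uCi/well) for a further 24 h with drug. After PBS washes, incorporation into DNA counted by scintillation.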
On the technique in general: Dividing cells build labelled thymidine or BrdU into new DNA.

In test [1] the test system is HeLa cervical adenocarcinoma. Kind of test: Inhibition of cell proliferation (14C-thymidine incorporation), HeLa.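 Further: HeLa cells in 96-well scintillating plates, compound for 24 h then 24 h more with 14C-thymidine, counting label built into new DNA against DMSO-only control wells.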 The test is classed as cell-based. The following applies: Homo sapiens.
The next test relates to A375 malignant melanoma. The test can be described thus: Inhibition of cell proliferation (14C-thymidine incorporation), A375. It counts as cell-based, human. The following applies: Homo sapiens, A-375. In outline:
as §1

The target of a further test is T3, HER2 (Homo sapiens, UniProt P04626).
T3 construct: polyhistidine (N)
T3 sequence (P04626 676-1255 limits assumed): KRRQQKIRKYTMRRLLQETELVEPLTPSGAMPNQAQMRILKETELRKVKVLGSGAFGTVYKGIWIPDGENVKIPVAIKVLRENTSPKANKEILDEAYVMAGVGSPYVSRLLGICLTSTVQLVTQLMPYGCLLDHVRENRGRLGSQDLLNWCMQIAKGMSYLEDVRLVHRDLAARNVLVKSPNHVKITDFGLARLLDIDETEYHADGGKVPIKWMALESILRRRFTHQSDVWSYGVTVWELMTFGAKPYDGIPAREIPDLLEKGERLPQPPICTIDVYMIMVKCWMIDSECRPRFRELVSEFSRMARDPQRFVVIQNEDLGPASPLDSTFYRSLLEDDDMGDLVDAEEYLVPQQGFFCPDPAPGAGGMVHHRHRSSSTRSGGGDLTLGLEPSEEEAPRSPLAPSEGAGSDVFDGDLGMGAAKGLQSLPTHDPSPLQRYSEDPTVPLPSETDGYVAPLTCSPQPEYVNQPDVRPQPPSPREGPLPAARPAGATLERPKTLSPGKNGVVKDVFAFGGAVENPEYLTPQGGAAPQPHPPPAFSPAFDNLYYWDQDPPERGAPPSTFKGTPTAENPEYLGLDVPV
Kind of test: HER2 kinase Screening Assay. The test is classed as biochemical. Conditions: 33P-γ-ATP incorporation, 10 μM ATP.

A further test deals with T4, RET (Homo sapiens, UniProt P07949).
T4 construct: the RET cytoplasmic domain consisting of the last 492 amino acids of the intracellular domain of the RET tyrosine kinase; histidine tag (N); made in house; host or cells: Hi5 insect cells
T4 sequence (P07949 658-1114 limits assumed): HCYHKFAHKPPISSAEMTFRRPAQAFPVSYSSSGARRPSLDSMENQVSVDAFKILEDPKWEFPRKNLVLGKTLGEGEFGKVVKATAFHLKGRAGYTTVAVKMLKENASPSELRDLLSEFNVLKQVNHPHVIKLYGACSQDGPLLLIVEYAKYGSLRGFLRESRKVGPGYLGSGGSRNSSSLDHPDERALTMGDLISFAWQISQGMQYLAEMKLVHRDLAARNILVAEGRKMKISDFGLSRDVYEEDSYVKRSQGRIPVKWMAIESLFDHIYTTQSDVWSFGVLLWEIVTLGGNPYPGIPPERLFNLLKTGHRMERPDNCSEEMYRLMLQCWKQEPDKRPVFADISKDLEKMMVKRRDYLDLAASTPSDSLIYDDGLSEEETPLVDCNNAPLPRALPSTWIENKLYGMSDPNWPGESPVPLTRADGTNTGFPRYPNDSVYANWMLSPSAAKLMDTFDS
Kind of test: RET Kinase Screening Assay. The test is classed as biochemical. The following applies: 33P-γ-ATP incorporation, 10 μM ATP.

The target in the next test is T5, VEGF-R2 (Rattus norvegicus, UniProt O08775).
T5 construct: polyhistidine (N)
T5 sequence (O08775 786-1343): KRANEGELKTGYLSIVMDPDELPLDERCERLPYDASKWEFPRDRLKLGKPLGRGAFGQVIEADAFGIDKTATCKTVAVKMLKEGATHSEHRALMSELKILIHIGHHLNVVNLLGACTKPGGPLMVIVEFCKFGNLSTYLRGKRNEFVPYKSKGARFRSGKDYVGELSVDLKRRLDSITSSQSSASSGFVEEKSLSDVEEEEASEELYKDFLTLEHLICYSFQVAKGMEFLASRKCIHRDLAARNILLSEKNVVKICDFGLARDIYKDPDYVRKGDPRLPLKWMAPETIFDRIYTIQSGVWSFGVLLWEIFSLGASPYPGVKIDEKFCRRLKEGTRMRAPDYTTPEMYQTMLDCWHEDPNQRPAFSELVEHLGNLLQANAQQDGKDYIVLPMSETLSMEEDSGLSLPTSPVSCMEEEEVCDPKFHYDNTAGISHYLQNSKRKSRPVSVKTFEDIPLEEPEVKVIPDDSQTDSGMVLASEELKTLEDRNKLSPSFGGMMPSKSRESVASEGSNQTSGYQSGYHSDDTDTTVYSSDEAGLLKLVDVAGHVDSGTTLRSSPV
Kind of test: VEGF-R2 Screening Assay. It counts as biochemical. The following applies: 33P-γ-ATP incorporation, 10 μM ATP. In outline: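 The N-terminally His-tagged rat VEGF-R2 kinase domain (aa 786-1343), diluted in 50 mM Tris-HCl pH 8.0 with 0.1% BSA, phosphorylated a biotinylated histone-H1 peptide with 33P-γ-ATP on Flashplates for 1 h at 30 °C in 1% DMSO. After washes with EDTA/PBS, immobilized 33P was counted by scintillation.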

T1 sequence (P06493 whole entry): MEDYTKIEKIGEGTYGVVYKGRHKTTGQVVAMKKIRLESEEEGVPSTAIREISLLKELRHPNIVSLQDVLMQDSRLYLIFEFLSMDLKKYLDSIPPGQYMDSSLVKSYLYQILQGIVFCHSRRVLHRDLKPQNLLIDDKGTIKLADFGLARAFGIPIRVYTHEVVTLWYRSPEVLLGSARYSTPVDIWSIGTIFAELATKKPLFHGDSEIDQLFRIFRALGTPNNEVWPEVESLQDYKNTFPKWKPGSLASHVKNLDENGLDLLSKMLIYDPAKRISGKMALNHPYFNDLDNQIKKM
T1 sequence (P14635 whole entry partner): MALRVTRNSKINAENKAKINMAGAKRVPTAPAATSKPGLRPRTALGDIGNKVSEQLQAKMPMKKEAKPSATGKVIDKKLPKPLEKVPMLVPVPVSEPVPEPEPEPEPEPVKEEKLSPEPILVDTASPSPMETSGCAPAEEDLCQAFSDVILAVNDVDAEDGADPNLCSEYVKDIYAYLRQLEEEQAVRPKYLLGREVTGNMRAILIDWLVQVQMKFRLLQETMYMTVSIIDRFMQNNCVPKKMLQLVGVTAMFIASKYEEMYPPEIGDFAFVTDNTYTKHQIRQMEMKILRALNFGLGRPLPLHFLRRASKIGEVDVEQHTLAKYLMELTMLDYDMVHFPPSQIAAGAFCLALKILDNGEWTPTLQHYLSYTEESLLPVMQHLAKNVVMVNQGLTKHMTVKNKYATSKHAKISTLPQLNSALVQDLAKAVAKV

As a reminder, the IC50 is the midpoint of a concentration-inhibition curve. Higher therefore signals lower potency. In the case of `OCCc1ccc(Nc2nccc(-c3c[nH]c4ncccc34)n2)cc1` [Cpd 1, 2-{4-[4-(1H-Pyrrolo[2,3-b]pyridin-3-yl)-pyrimidin-2-ylamino]-phenyl}-ethanol], the IC50 at CDK1:Cyclin-B came to 0.019 µM; against Aurora-A it was 0.159 µM; in the test on HCT-116 colon carcinoma, 0.022 µM; in test [1], 0.056 µM; with A375 malignant melanoma it was 0.066 µM; against HER2, 0.008 µM. The IC50 against RET turned out to be 0.337 µM; on VEGF-R2, 0.087 µM.
As for `c1ccc(Nc2nccc(-c3c[nH]c4ncccc34)n2)cc1` [Cpd 3, Phenyl-[4-(1H-pyrrolo[2,3-b]pyridin-3-yl)-pyrimidin-2-yl]-amine], the IC50 on CDK1:Cyclin-B was 0.054 µM; against Aurora-A, 0.159 µM; in the test on HCT-116 colon carcinoma, 0.26 µM; in test [1], 0.382 µM; with A375 malignant melanoma, 0.468 µM; against HER2, 0.032 µM. Further, the IC50 against RET worked out at 1 µM; on VEGF-R2 it was 0.213 µM.
With `OCCOc1ccc(Nc2nccc(-c3c[nH]c4ncccc34)n2)cc1` [Cpd 4, 2-{4-[4-(1H-Pyrrolo[2,3-b]pyridin-3-yl)-pyrimidin-2-ylamino]-phenoxy}-ethanol], the IC50 stood at 0.021 µM against CDK1:Cyclin-B; 0.173 µM at Aurora-A; 0.062 µM in the test with HCT-116 colon carcinoma; 0.062 µM in test [1]; 0.061 µM in the test on A375 malignant melanoma; 0.01 µM on HER2. For the same molecule, the results for the IC50 on RET and on VEGF-R2 were 1.41 µM and 0.01 µM, respectively.
Take `c1cnc2[nH]cc(-c3ccnc(Nc4ccc(CCN5CCCC5)cc4)n3)c2c1` [Cpd 19, [4-(2-Pyrrolidin-1-yl-ethyl)-phenyl]-[4-(1H-pyrrolo[2,3-b]pyridin-3-yl)-pyrimidin-2-yl]-amine]: the IC50 on CDK1:Cyclin-B was 0.032 µM; against Aurora-A, 0.162 µM; in the test with HCT-116 colon carcinoma, 0.013 µM; in test [1], 0.029 µM; in the test with A375 malignant melanoma it was 0.021 µM; against HER2, 0.011 µM. Further, 0.065 µM corresponded to half-maximal inhibition on VEGF-R2 (IC50).
For `c1cnc2[nH]cc(-c3ccnc(Nc4ccc(CCN5CCNCC5)cc4)n3)c2c1` [Cpd 20, [4-(2-piperazin-1-yl-ethyl)-phenyl]-[4-(1H-pyrrolo[2,3-b]pyridin-3-yl)-pyrimidin-2-yl]-amine], the IC50 was 0.134 µM against CDK1:Cyclin-B; 0.253 µM on Aurora-A; 0.037 µM in the test with HCT-116 colon carcinoma; 0.14 µM in test [1]; 0.11 µM in the test with A375 malignant melanoma; 0.025 µM against HER2. Moreover, the IC50 at RET was determined as 0.892 µM; on VEGF-R2, 0.186 µM.
Consider `CN1CCN(CCc2ccc(Nc3nccc(-c4c[nH]c5ncccc45)n3)cc2)CC1` [Cpd 21, {4-[2-(4-Methyl-piperazin-1-yl)-ethyl]-phenyl}-[4-(1H-pyrrolo[2,3-b]pyridin-3-yl)-pyrimidin-2-yl]-amine], for which the IC50 at CDK1:Cyclin-B was 0.068 µM; against Aurora-A, 0.197 µM; in the test with HCT-116 colon carcinoma, 0.0159 µM; in test [1], 0.0315 µM; in the test on A375 malignant melanoma, 0.0295 µM; on HER2, 0.009 µM. At VEGF-R2, this molecule displayed an IC50 of 0.075 µM.
`c1cnc2[nH]cc(-c3ccnc(Nc4ccc(CCN5CCOCC5)cc4)n3)c2c1` [Cpd 22, [4-(2-Morpholin-4-yl-ethyl)-phenyl]-[4-(1H-pyrrolo[2,3-b]pyridin-3-yl)-pyrimidin-2-yl]-amine]: the IC50 is 0.074 µM against CDK1:Cyclin-B; 0.173 µM at Aurora-A; 0.018 µM in the test on HCT-116 colon carcinoma; 0.035 µM in test [1]; 0.055 µM in the test with A375 malignant melanoma; 0.011 µM on HER2. The values for the 50% inhibitory concentration (IC50) against RET and against VEGF-R2 were 0.587 µM and 0.084 µM, respectively.
In the case of `CN(C)CCc1ccc(Nc2nccc(-c3c[nH]c4ncccc34)n2)cc1` [Cpd 23, [4-(2-Dimethylamino-ethyl)-phenyl]-[4-(1H-pyrrolo[2,3-b]pyridin-3-yl)-pyrimidin-2-yl]-amine], the IC50 came out at 0.039 µM against CDK1:Cyclin-B; 0.257 µM at Aurora-A; 0.025 µM in the test with HCT-116 colon carcinoma; 0.03 µM in test [1]; 0.024 µM in the test with A375 malignant melanoma; 0.012 µM at HER2. Further, inhibition on VEGF-R2 was half-maximal at 0.066 µM (IC50).
For the molecule `CCN(CC)CCc1ccc(Nc2nccc(-c3c[nH]c4ncccc34)n2)cc1` [Cpd 24, [4-(2-Diethylamino-ethyl)-phenyl]-[4-(1H-pyrrolo[2,3-b]pyridin-3-yl)-pyrimidin-2-yl]-amine], the IC50 at CDK1:Cyclin-B came to 0.028 µM; against Aurora-A it was 0.244 µM; with HCT-116 colon carcinoma, 0.018 µM; in test [1], 0.034 µM; in the test on A375 malignant melanoma it was 0.031 µM; against HER2, 0.009 µM. It took 0.089 µM to reach half-maximal inhibition on VEGF-R2 (IC50).
On to `CNCCc1ccc(Nc2nccc(-c3c[nH]c4ncccc34)n2)cc1` [Cpd 25, [4-(2-Methylamino-ethyl)-phenyl]-[4-(1H-pyrrolo[2,3-b]pyridin-3-yl)-pyrimidin-2-yl]-amine], for which the IC50 stood at 0.051 µM against CDK1:Cyclin-B; 0.182 µM against Aurora-A; 0.068 µM in the test on HCT-116 colon carcinoma; 0.062 µM in test [1]; 0.04 µM in the test on A375 malignant melanoma; 0.012 µM at HER2. The same molecule had an IC50 against VEGF-R2 of 0.093 µM.
Take `CCNCCc1ccc(Nc2nccc(-c3c[nH]c4ncccc34)n2)cc1` [Cpd 26, [4-(2-Ethylamino-ethyl)-phenyl]-[4-(1H-pyrrolo[2,3-b]pyridin-3-yl)-pyrimidin-2-yl]-amine]: the IC50 worked out at 0.014 µM at CDK1:Cyclin-B; 0.157 µM against Aurora-A; 0.0135 µM with HCT-116 colon carcinoma; 0.026 µM in test [1]; 0.0222 µM in the test with A375 malignant melanoma; 0.006 µM against HER2. This molecule registered an IC50 at VEGF-R2 of 0.094 µM.
